Tests used:
[1] = biological target: Cyclin-dependent kinase-like 1 (Homo sapiens) (UniProt Q00532); conditions: Compound concentration 1000.0 nM
[2] = biological target: Mitogen-activated protein kinase kinase kinase 13 (Homo sapiens) (UniProt O43283); conditions: Compound concentration 1000.0 nM
[3] = biological target: 5-hydroxytryptamine receptor 6 (Homo sapiens) (UniProt P50406); conditions: Compound concentration 10.0 uM
[4] = biological target: Alpha-2C adrenergic receptor (Homo sapiens) (UniProt P18825); assay: ALPHA2CH_ANTAG Cerep selectivity data (BI); conditions: filed as antagonist, Compound concentration 20.0 uM
Alpha-2C adrenergic receptor (Homo sapiens), sequence (P18825 whole entry): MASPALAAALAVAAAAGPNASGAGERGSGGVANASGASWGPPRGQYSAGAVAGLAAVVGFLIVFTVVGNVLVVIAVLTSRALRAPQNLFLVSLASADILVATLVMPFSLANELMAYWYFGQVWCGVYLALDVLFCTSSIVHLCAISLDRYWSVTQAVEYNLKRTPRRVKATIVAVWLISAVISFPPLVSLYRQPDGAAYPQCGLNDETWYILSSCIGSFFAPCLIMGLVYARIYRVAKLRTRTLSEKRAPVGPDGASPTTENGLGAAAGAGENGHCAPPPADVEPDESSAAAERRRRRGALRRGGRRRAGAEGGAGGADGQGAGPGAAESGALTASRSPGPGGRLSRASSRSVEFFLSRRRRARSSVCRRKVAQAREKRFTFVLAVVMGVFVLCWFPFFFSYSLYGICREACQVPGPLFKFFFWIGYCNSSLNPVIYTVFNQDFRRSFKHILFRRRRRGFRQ

[5] = biological target: Androgen receptor (Homo sapiens) (UniProt P10275); assay: ANDROGEN/H Cerep selectivity data (BI); conditions: Compound concentration 20.0 uM
[6] = biological target: Leukotriene B4 receptor 1 (Homo sapiens) (UniProt Q15722); assay: BLT1/H Cerep selectivity data (BI); conditions: Compound concentration 20.0 uM
[7] = biological target: Cannabinoid receptor 2 (Homo sapiens) (UniProt P34972); assay: CB2/PERIPH/H Cerep selectivity data (BI); conditions: Compound concentration 20.0 uM
[8] = biological target: Chloride channel protein 1 (Rattus norvegicus) (UniProt P35524); assay: CL-CHANNEL/R Cerep selectivity data (BI); conditions: Compound concentration 20.0 uM
[9] = biological target: D(1A) dopamine receptor (Homo sapiens) (UniProt P21728); assay: D1/H Cerep selectivity data (BI); conditions: filed as antagonist, Compound concentration 20.0 uM
[10] = biological target: Endothelin-1 receptor (Homo sapiens) (UniProt P25101); assay: ETA/H Cerep selectivity data (BI); conditions: Compound concentration 20.0 uM
[11] = biological target: Glutamate receptor ionotropic, kainate 1 (Rattus norvegicus) (UniProt P22756); assay: KAINATE/RA Cerep selectivity data (BI); conditions: Compound concentration 20.0 uM
[12] = biological target: Substance-K receptor (Homo sapiens) (UniProt P21452); assay: NK2/H Cerep selectivity data (BI); conditions: Compound concentration 20.0 uM
[13] = biological target: Somatostatin receptor type 4 (Homo sapiens) (UniProt P31391); assay: SST4_HU Cerep selectivity data (BI); conditions: Compound concentration 20.0 uM
Somatostatin receptor type 4 (Homo sapiens), sequence (P31391 whole entry): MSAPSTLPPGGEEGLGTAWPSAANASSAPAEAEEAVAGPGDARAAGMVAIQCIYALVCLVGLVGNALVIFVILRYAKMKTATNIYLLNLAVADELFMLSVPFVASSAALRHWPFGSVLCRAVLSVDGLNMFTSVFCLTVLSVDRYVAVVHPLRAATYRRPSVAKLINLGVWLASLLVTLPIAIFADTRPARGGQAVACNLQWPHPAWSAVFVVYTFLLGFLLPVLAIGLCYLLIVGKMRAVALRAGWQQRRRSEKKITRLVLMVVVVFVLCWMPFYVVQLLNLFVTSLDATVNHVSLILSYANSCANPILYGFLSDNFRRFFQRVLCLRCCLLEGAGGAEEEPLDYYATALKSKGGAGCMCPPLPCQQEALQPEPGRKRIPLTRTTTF

[14] = biological target: Beta-1 adrenergic receptor (Homo sapiens) (UniProt P08588); assay: BETA1/HU Eurofins-Panlabs selectivity data (BI); conditions: Compound concentration 10.0 uM
Beta-1 adrenergic receptor (Homo sapiens), sequence (P08588 whole entry, looked up): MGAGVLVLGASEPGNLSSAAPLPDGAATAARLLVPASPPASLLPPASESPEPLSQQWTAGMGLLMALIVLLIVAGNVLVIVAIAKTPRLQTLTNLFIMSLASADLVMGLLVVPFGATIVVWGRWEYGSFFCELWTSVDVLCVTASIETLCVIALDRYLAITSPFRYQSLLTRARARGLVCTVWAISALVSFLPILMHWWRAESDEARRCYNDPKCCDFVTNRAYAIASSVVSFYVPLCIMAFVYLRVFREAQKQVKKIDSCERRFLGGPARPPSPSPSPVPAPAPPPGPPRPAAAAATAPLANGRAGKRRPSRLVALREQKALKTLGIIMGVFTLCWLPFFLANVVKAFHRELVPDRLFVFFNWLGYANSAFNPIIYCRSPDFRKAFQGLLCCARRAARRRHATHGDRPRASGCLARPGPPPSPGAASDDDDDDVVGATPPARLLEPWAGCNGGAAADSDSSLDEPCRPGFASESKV

[15] = biological target: Voltage-dependent N-type calcium channel subunit alpha-1B (Rattus norvegicus) (UniProt Q02294); assay: CA+/N/RA Eurofins-Panlabs selectivity data (BI); conditions: Compound concentration 10.0 uM
[16] = biological target: Epidermal growth factor receptor (Homo sapiens) (UniProt P00533); assay: EGF/HU Eurofins-Panlabs selectivity data (BI); conditions: Compound concentration 10.0 uM
[17] = biological target: Glucocorticoid receptor (Homo sapiens) (UniProt P04150); assay: GLUCOCORTICO Eurofins-Panlabs selectivity data (BI); conditions: Compound concentration 10.0 uM
[18] = tested on: Serine/threonine-protein kinase B-raf (Homo sapiens), P15056 [V600E]; assay: BRAF V599E Invitrogen selectivity data (BI); conditions: Compound concentration 3.0 uM
Serine/threonine-protein kinase B-raf (Homo sapiens), P15056 [V600E], sequence (P15056 whole entry V600E): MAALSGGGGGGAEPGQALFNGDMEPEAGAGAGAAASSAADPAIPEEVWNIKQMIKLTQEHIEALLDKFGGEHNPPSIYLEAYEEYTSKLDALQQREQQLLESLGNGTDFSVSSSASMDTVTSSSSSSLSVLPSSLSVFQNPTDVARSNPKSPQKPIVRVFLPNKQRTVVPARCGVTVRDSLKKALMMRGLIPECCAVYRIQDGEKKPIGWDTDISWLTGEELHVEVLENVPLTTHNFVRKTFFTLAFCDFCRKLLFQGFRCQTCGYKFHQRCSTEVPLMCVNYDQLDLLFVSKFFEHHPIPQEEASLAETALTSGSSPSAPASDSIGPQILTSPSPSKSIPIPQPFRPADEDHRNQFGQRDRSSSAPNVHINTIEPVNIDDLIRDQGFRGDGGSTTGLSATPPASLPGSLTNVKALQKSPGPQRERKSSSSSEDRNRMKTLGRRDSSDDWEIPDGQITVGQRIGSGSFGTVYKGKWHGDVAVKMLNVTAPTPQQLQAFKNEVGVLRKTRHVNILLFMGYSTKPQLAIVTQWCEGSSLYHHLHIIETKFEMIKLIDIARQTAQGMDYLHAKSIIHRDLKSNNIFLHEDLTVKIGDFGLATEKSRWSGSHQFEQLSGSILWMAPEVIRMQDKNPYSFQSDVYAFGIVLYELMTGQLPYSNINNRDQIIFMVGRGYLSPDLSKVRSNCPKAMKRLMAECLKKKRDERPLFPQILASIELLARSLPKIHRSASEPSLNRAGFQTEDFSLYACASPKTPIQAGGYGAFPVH

[19] = biological target: Cyclin-dependent kinase 1/cyclin B (Homo sapiens) (UniProt P06493+P14635+Q8WWL7+O95067); assay: CDK1/CYCLINB Invitrogen selectivity data (BI); format: protein-complex assay; conditions: Compound concentration 3.0 uM
[20] = biological target: Cyclin-dependent kinase 2/cyclin A (Homo sapiens) (UniProt P24941+P20248+P78396); assay: CDK2/CYCLINA Invitrogen selectivity data (BI); format: protein-complex assay; conditions: Compound concentration 3.0 uM
[21] = biological target: T1, Serine/threonine-protein kinase Chk1 (Homo sapiens) (UniProt O14757); assay: CHEK1 Invitrogen selectivity data (BI); conditions: Compound concentration 3.0 uM
T1 sequence (whole entry): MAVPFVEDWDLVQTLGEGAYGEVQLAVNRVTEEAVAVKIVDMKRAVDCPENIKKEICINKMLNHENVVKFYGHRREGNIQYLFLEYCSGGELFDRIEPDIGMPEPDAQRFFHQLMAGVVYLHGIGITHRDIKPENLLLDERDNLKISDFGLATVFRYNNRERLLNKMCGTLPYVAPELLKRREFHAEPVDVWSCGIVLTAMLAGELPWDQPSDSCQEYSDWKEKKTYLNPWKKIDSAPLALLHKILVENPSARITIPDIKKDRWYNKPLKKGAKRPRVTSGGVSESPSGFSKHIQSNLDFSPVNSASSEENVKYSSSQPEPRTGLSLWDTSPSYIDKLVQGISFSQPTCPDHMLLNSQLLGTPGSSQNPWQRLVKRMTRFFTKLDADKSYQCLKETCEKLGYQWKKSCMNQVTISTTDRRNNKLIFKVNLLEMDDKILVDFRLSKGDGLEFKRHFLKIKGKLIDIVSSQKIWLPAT

[22] = biological target: Insulin-like growth factor 1 receptor (Homo sapiens) (UniProt P08069); assay: IGF1R Invitrogen selectivity data (BI); conditions: Compound concentration 3.0 uM
[23] = biological target: Tyrosine-protein kinase Lck (Homo sapiens) (UniProt P06239); assay: LCK Invitrogen selectivity data (BI); conditions: Compound concentration 3.0 uM
Tyrosine-protein kinase Lck (Homo sapiens), sequence (P06239 2-509 limits assumed): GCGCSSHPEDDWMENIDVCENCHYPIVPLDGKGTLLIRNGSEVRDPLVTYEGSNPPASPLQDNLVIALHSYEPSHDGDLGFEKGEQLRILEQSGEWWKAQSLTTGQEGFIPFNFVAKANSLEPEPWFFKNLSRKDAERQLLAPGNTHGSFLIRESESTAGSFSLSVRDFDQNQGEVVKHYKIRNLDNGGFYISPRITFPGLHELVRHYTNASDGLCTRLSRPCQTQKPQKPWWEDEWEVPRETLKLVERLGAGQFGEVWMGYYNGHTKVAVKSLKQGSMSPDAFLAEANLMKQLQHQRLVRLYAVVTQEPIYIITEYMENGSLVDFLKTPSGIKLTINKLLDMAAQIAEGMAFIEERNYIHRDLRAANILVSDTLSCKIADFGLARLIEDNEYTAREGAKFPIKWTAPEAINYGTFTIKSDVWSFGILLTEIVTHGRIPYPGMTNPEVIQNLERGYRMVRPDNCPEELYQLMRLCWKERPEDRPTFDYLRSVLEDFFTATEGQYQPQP

[24] = biological target: Tyrosine-protein kinase Lyn (Homo sapiens) (UniProt P07948); assay: LYN B Invitrogen selectivity data (BI); conditions: Compound concentration 3.0 uM
[25] = biological target: Mitogen-activated protein kinase 10 (Homo sapiens) (UniProt P53779); assay: MAPK10 Invitrogen selectivity data (BI); conditions: Compound concentration 3.0 uM
[26] = biological target: PAS domain-containing serine/threonine-protein kinase (Homo sapiens) (UniProt Q96RG2); assay: PASK Invitrogen selectivity data (BI); conditions: Compound concentration 3.0 uM
PAS domain-containing serine/threonine-protein kinase (Homo sapiens), sequence (Q96RG2 whole entry, the tested form may be a part): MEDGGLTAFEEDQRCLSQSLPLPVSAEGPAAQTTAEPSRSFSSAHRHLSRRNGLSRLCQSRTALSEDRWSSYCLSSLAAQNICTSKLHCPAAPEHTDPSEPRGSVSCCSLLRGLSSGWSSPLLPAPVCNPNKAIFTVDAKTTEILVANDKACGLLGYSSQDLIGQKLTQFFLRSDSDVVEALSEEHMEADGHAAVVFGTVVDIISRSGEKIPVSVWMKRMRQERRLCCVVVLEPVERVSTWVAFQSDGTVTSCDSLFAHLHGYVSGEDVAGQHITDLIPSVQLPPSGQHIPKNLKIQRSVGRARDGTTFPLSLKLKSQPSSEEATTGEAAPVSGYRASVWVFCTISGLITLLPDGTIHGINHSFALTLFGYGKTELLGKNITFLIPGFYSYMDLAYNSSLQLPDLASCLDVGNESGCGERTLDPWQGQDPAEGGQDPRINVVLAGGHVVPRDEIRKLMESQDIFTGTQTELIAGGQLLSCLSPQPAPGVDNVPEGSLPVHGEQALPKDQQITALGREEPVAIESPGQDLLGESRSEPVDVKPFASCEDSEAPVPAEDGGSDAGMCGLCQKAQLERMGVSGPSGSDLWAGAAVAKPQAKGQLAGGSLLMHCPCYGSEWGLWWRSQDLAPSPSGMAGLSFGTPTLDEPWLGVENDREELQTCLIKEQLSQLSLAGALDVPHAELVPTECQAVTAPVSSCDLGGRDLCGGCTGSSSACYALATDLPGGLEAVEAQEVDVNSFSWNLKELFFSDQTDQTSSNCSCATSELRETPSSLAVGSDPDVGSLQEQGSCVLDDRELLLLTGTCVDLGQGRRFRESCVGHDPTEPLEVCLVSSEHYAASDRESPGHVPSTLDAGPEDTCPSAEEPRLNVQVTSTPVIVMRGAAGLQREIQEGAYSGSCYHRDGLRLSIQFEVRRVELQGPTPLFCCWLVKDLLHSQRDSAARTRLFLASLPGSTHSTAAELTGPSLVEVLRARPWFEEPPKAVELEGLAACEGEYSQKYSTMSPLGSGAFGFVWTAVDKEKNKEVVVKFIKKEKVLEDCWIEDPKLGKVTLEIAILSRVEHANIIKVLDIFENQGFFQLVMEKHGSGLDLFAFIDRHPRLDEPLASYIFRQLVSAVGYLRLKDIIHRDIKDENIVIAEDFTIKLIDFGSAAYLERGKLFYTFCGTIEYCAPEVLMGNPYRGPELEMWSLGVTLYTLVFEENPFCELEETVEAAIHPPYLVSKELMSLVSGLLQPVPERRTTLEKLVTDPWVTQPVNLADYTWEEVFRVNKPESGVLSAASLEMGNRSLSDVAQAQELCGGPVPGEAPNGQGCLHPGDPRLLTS

[27] = biological target: T2, Tyrosine-protein kinase receptor TYRO3 (Homo sapiens) (UniProt Q06418); assay: TYRO3 Invitrogen selectivity data (BI); conditions: Compound concentration 3.0 uM
T2 sequence (whole entry): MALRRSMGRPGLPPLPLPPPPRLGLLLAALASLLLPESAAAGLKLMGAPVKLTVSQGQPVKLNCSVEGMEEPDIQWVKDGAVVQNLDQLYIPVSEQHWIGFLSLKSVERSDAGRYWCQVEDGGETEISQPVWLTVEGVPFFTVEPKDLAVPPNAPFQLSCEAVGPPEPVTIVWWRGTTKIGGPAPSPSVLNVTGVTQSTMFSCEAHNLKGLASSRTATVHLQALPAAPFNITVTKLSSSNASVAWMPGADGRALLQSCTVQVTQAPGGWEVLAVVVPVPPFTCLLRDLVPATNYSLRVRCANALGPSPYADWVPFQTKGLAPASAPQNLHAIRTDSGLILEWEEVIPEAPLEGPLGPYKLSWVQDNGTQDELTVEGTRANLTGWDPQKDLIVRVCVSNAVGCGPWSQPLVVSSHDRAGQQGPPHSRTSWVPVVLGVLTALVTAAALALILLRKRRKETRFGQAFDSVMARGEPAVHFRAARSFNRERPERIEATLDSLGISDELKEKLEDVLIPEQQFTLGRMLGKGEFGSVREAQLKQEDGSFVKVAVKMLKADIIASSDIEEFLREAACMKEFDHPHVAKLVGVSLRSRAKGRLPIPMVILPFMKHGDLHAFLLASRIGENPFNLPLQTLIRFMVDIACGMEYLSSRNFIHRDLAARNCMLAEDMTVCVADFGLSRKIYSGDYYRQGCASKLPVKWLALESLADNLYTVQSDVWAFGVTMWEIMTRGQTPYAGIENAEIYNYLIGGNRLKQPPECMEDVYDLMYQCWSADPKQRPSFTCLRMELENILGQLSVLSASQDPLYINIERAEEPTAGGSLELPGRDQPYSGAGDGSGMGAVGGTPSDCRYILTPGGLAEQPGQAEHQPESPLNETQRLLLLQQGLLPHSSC

5-hydroxytryptamine receptor 6 (Homo sapiens), sequence (P50406 whole entry): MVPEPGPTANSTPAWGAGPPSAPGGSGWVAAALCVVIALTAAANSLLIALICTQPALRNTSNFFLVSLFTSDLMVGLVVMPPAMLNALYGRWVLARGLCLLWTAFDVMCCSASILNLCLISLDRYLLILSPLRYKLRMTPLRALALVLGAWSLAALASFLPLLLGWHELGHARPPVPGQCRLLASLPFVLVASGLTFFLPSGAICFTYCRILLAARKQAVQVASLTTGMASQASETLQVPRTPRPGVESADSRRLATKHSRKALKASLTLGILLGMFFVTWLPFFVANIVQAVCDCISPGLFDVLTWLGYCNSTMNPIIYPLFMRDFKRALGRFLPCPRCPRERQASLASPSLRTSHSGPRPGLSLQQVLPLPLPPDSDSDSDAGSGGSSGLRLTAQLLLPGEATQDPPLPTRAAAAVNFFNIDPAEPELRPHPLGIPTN
Cyclin-dependent kinase-like 1 (Homo sapiens), sequence (Q00532 whole entry): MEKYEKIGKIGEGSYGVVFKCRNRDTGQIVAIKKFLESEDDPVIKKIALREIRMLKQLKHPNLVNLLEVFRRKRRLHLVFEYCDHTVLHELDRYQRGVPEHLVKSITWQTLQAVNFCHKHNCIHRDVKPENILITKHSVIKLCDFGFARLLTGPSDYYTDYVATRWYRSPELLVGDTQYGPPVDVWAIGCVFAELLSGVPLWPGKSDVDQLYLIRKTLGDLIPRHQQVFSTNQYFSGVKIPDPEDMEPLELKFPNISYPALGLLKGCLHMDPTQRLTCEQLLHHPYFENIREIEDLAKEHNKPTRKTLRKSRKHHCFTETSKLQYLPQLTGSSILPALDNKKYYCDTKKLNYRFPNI

CN(C)C(=O)Cn1cc(-c2nc(C3(c4ccc(-c5cnc(N)nc5)cc4)CC3)no2)cn1 [BI 0153]
inactive: residual activity [1] 100% | residual activity [2] 100% | inhibition [3] -7.48%

CN(C)C(=O)Cn1cc(-c2nc([C@@](C)(c3ccc(-c4cnc(N)nc4)cc3)C3CC3)no2)cn1 [BI 665915]
inactive: residual activity [4] 103% | residual activity [5] 102% | residual activity [6] 100% | residual activity [7] 93% | residual activity [8] 88% | residual activity [9] 98% | residual activity [10] 102% | residual activity [11] 82% | residual activity [12] 102% | residual activity [13] 146% | residual activity [14] 103% | residual activity [15] 95% | residual activity [16] 103% | residual activity [17] 111% | residual activity [18] 97% | residual activity [19] 99% | residual activity [20] 100% | residual activity [21] 96% | residual activity [22] 99.5% | residual activity [23] 91.5% | residual activity [24] 89% | residual activity [25] 96% | residual activity [26] 100% | residual activity [27] 96.5%
